Measurements as given in publication PMC11063128 (Journal of the American Chemical Society, 2023).

T1: MMADHC (CblD) (Homo sapiens, UniProt Q9H3L0, C261S/C262S)
T1 sequence (Q9H3L0 1-296 C261S/C262S): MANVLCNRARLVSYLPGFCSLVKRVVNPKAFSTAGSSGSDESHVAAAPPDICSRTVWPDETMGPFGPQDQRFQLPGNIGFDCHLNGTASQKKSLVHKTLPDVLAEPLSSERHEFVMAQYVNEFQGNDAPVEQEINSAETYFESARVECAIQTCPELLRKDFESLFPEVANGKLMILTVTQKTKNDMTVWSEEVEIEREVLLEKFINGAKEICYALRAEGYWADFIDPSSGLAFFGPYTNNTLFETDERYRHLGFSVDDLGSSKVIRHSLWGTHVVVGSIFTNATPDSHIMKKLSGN

T2: C262S ^ΔNMMADHC–S–Cob(III) (human, UniProt Q9H3L0 116-296, C262S, thiolato-cob(III)alamin (cobalamin coordinated through a cysteine sulfur, -S-Cob(III)))
T2 sequence (looked up): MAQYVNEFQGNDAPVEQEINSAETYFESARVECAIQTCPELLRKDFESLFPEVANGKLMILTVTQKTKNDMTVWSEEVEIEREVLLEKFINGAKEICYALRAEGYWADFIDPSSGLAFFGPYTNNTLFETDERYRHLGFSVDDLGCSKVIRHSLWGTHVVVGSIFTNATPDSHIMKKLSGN

B1: ^ΔNMTR, C-terminal half of human methionine synthase (cap, B12 and AdoMet domains, residues 661–1265) (domain or fragment, UniProt Q99707 661-1265, looked up)
chain: IQTDEWRNGPVEERLEYALVKGIEKHIIEDTEEARLNQKKYPRPLNIIEGPLMNGMKIVGDLFGAGKMFLPQVIKSARVMKKAVGHLIPFMEKEREETRVLNGTVEEEDPYQGTIVLATVKGDVHDIGKNIVGVVLGCNNFRVIDLGVMTPCDKILKAALDHKADIIGLSGLITPSLDEMIFVAKEMERLAIRIPLLIGGATTSKTHTAVKIAPRYSAPVIHVLDASKSVVVCSQLLDENLKDEYFEEIMEEYEDIRQDHYESLKERRYLPLSQARKSGFQMDWLSEPHPVKPTFIGTQVFEDYDLQKLVDYIDWKPFFDVWQLRGKYPNRGFPKIFNDKTVGGEARKVYDDAHNMLNTLISQKKLRARGVVGFWPAQSIQDDIHLYAEAAVPQAAEPIATFYGLRQQAEKDSASTEPYYCLSDFIAPLHSGIRDYLGLFAVACFGVEELSKAYEDDGDDYSSIMVKALGDRLAEAFAEELHERVRRELWAYCGSEQLDVADLRRLRYKGIRPAPGYPSQPDHTEKLTMWRLADIEQSTGIRLTESLAMAPASAVSGLYFSNLKSKYFAVGKISKDQVEDYALRKNISVAEVEKWLGPILGYDTD

Key:
[1] = molecular target: T1, MMADHC (CblD); experiment: UV-visible titration; type: binding
[2] = molecular target: T2, C262S ^ΔNMMADHC–S–Cob(III); experiment: UV-visible absorbance titration

Row | Molecule | Kd [1] [µM] | stoichiometry N [2]
1 | H2OCbl | 8.4 ± 1.9 | –
2 | B1 | – | 1
